Data set [1] has as its system vaccinia viruses (D1E strain). Nature of the data set: microbe, parasite or virus in culture. The format is cell-based. The note with it: Orthopoxvirus vaccinia, Vero, read-out: Antiviral Activity (ΔTCID50).
The subject of data set [2] is GMK cells.
For another data set, the system named is HSV-2 (UW-268 strain). Nature of the data set: microbe, parasite or virus in culture. The format is cell-based, Herpes simplex virus type 2. The note with it: Human alphaherpesvirus 2, Vero, read-out: Antiviral Activity (ΔTCID50).
The nature of data set [3]: Acute toxicity testing, oral, mice (LD50, Litchfield-Willcoxon). The settings on record: mouse, in vivo, ICR male mice, 7 days observation. The text has this:
The compounds to be tested in the form of a 2% aqueous solution of Tween 80 were orally administrated to ICR male mice (weights: 24-30 g), five for each group.

For another data set, the system named is HSV-1 (KOS strain). Put plainly: microbe, parasite or virus in culture. The note with it: Human alphaherpesvirus 1, Vero, read-out: Antiviral Activity (ΔTCID50). The format is cell-based, Herpes simplex virus type 1.
A further data set has as its system HSV-1 (Miyama strain). Put plainly: In vitro antiviral action on cells infected with HSV-1 (Miyama strain), CPE inhibition, TCID50. It counts as cell-based, Herpes simplex virus type 1. The settings on record: Human alphaherpesvirus 1, GMK cells, read-out: Antiviral Activity (ΔTCID50); for log reduction at 1 µg/mL: 1 μg/ml; for log reduction at 5 µg/mL: 5 μg/ml; for log reduction at 25 µg/mL: 25 μg/ml.

Data set [4] deals with influenza viruses (A/PR/8 strain). Nature of the data set: microbe, parasite or virus in culture. The settings on record: unidentified influenza virus, PR/8, MDCK, read-out: Antiviral Activity (ΔTCID50). The format is cell-based, influenza virus A/PR/8.
A further data set has as its system influenza viruses. The note with it: in vivo; cited from earlier work.
A short description of data set [5]: Safety / cytotoxicity, general statement.
For data set [6], the system named is influenza viruses (A/PR/8 strain). Nature of the data set: microbe, parasite or virus in culture. The format is cell-based, influenza virus A/PR/8. The note with it: unidentified influenza virus, PR/8, MDCK, read-out: Antiviral Activity (ΔTCID50). This is another data set of the same source.
Data set [7] has as its system GMK cells. Put plainly: Cytotoxicity (HSV UV-238 strain test), microscopic.
Another data set has as its system HSV (UV-238 Strain). Put plainly: Action on HSV (UV-238 strain), CPE inhibition, TCID50. It counts as cell-based. The note with it: read-out: Antiviral Activity (ΔTCID50).
Another data set deals with herpes simplex virus. Nature of the data set: Antiviral activity, general statement.

Molecules are shown by their SMILES. Like-named read-outs stand apart in the source and are kept apart here. Bounds are passed on as bounds.

One may read the LD50 as the dose expected to kill half of the subjects tested.

As for `COc1ccccc1N1CCN(C(=O)[C@@]2(C)CC[C@]3(C)CC[C@]4(C)C(=CC[C@@H]5[C@@]6(C)CC[C@H](O[C@H]7O[C@H](C(=O)O)[C@@H](O)[C@H](O)[C@H]7O[C@@H]7O[C@H](C(=O)O)[C@@H](O)[C@H](O)[C@H]7O)C(C)(C)[C@@H]6CC[C@]54C)[C@@H]3C2)CC1` [Comp. Ex. 37, 30-(N-2-(4-(2-methoxylphenyl)piperazine-1-yl)carbonyl)-18β-olean-12-en-3β-yl-2-O-β-D-glucuronyl-α-D-gluconic acid], the magnitude of cytotoxicity result in the data set with Vero cells, in the data set on GMK cells [2] (1 μg/ml), in the data set on GMK cells [2] (5 μg/ml) and in the data set on GMK cells [2] (25 μg/ml) was “-” each time. The log reduction at 1 µg/mL in [1] came out at 1.49; with HSV-2 (UW-268 strain) it was 1.87; with HSV-1 (KOS strain), 2.74; in the data set with HSV-1 (Miyama strain), 1.94; in data set [4], 1.64. In addition, the log reduction at 5 µg/mL in [1] was 2.85; in the data set on HSV-2 (UW-268 strain) it was 3.01; with HSV-1 (KOS strain), 2.65; in the data set with HSV-1 (Miyama strain), over 3.17; in data set [4] it was 1.7. The log reduction at 25 µg/mL is 2.61 in data set [1]; over 3.85 in the data set with HSV-2 (UW-268 strain); over 3.25 in the data set with HSV-1 (KOS strain); over 3.73 in the data set with HSV-1 (Miyama strain); 2.38 in data set [4]. Moreover, in data set [3], the LD50 at 168 h is over 1000 mg/kg.
With `N#CNc1nncs1` [LY253963], the “effect on influenza viruses in animal tests” value with influenza viruses is given as “resistant to influenza viruses in animal tests”.
Regarding `COc1ccccc1N1CCN(C(=O)[C@@]2(C)CC[C@]3(C)CC[C@]4(C)C(=CC[C@@H]5[C@@]6(C)CC[C@H](OC(=O)CCC(=O)O)C(C)(C)[C@@H]6CC[C@]54C)[C@@H]3C2)CC1` [Table 1, Comp. (13), 1-[3β-(3-carboxypropanoyloxy)-18β-olean-12-en-30-oyl]-4-(2-methoxyphenyl)piperazine], the “safety / cytotoxic action” value in data set [5] is “of greatly safety”. The log reduction at 1 µg/mL in data set [6] stood at 0.4; in the data set on HSV (UV-238 Strain) (1 μg/ml), 0.9; with HSV-1 (Miyama strain) it was 0.8. The log reduction at 5 µg/mL worked out at 0.6 in [6], 1.4 in the data set on HSV (UV-238 Strain) (5 μg/ml) and 2.6 in the data set with HSV-1 (Miyama strain). For the same compound, the log reduction at 20 µg/mL in data set [6] worked out at 1.5. In addition, the magnitude of cytotoxicity result in the data set on GMK cells [2] (1 μg/ml), in the data set with GMK cells [2] (5 μg/ml), in the data set with GMK cells [7] (1 μg/ml) and in the data set with GMK cells [7] (5 μg/ml) was “-” in each case. In addition, the log reduction at 25 µg/mL in the data set on HSV (UV-238 Strain) (25 μg/ml) and with HSV-1 (Miyama strain) was 2.5 each time. In addition, in the data set on herpes simplex virus, the antiviral activity entry is recorded as “a particularly high antiviral activity”.

Values taken from patent publication US5356880A, “Glycyrrhetinic acid derivatives” (priority 1991, dated 1994).
